Assay results taken from ChEMBL document CHEMBL1136622, “Discovery of the first antibacterial small molecule inhibitors of MurB” (Bioorg Med Chem Lett, 2003).
Converted amounts (≈) assume the structure as drawn.

Experiments:
[1] = In vitro inhibitory concentration required against Mur B enzyme was determined; set-up: species or system Staphylococcus aureus
[2] = test system: Staphylococcus aureus; assay: Antibacterial activity against Staphylococcus aureus A9537; assay type: functional

Structure (SMILES)	IC50 [1] [µM]	MIC [2] [µg/mL]
CCCC[C@@H](C(=O)O)n1c(-c2cccc(Oc3ccc(C(C)(C)C)cc3)c2)cnc1O	> 118	
CCCC[C@@H](C(=O)O)N1C(=O)C(CC(=O)NCCc2ccccc2Cl)SC1c1cccc(Oc2ccc(C(C)(C)C)cc2)c1 (some centres not stated)	12	
C=CCn1cc(-c2cccc(Oc3ccc(C(C)(C)C)cc3)c2)n([C@@H](CCCC)C(=O)O)c1=O	40	4 (≈ 8.65 µM)
CCCC[C@@H](C(=O)O)n1c(-c2cccc(Oc3ccc(C(C)(C)C)cc3)c2)cn(C)c1=O	> 115	
CCCC[C@@H](C(=O)O)n1c(-c2cccc(Oc3ccc(C(C)(C)C)cc3)c2)cn(Cc2ccccc2)c1=O	16	2 (≈ 3.9 µM)
CCCC[C@@H](C(=O)OC)n1c(-c2cccc(Oc3ccc(C(C)(C)C)cc3)c2)cn(CC(=O)O)c1=O	> 101	
CCCC[C@@H](C(=O)O)n1c(-c2cccc(Oc3ccc(C(C)(C)C)cc3)c2)cn(CC(=O)NCCc2ccccc2Cl)c1=O	25	4 (≈ 6.47 µM)
CCCC[C@@H](C(=O)O)n1c(-c2cccc(Oc3ccc(C(C)(C)C)cc3)c2)cn(CC(=O)NCc2ccc(Cl)c(Cl)c2)c1=O	15	4 (≈ 6.26 µM)
